For assay [1], the target named is C-Raf kinase (SEQ. ID NO: 3) (Homo sapiens (Human), UniProt P04049, Y340D/Y341D). The assay can be described thus: Biochemical Assay for C-Raf (1). Particulars: Table J, assay version (1); read-out: CRAF (1) IC50. The procedure, abridged: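 IC50 values come from a four-parameter fit of percent inhibition, using the reaction rate over 4–5 h of a 6 h continuous 340 nm read at 30 °C. The enzyme mix was C-Raf 0.43 nM, MEK substrate 30.1 nM and ATP 1 mM, in a PK/LDH NADH-coupled format in Tris pH 7.5 with 1% DMSO.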
C-Raf kinase (SEQ. ID NO: 3), sequence (P04049 307-648 Y340D/Y341D): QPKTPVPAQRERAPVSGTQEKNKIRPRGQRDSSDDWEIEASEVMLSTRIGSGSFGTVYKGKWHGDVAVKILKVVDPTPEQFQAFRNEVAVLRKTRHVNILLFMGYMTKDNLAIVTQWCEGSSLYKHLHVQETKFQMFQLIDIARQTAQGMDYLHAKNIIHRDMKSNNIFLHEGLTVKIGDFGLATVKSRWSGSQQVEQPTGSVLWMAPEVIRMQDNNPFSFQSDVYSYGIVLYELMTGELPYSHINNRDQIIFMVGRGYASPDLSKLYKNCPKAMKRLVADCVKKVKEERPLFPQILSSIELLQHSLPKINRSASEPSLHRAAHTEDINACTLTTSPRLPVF

For another assay, the system named is A375 cells. Kind of assay: A375 Cell Proliferation Assay (1). Type of assay: cell-based. Particulars: Homo sapiens, A-375. As to the method: A375 Cell Proliferation Assay (1)
A375 cells (catalog (#CRL-1619) are obtained from the American Type Culture Collect (ATTC, Manassas, VA). Briefly, cells were grown in DMEM High Glucose supplemented with 10% characterized fetal bovine serum (Invitrogen, Carlsbad, CA) and 1% Penicillin/Streptomycin/L-Glutamine at 37° C., 5% CO2, and 95% humidity. Cells are expanded until reaching 70-95% confluency at which point they are sub-cultured or harvested for assay use. A serial dilution of test compound is dispensed into a 96-well black clear bottom plate in triplicate. Two thousand five hundred cells are added per well in 200 μL complete growth medium in the 96-well plate. Plates are incubated for 67-72 h at 37° C., 5% CO2, and 95% humidity. At the end of the incubation, 40 μL of a 440 μM solution of resazurin (Sigma, St. Louis, MO) in PBS is added to each well of the plate and plates are incubated for an additional 5-6 h at 37° C., 5% CO2, and 95% humidity. Plates are read on a Synergy2 or equivalent reader (Biotek, Winooski VT) using an excitation of 540 nm and an emission of 600 nm. Data is analyzed using Prism software (GraphPad, San Diego, CA) to calculate IC50 values.

For assay [2], the target named is B-Raf (V600E) (SEQ. ID NO: 4) kinase (Homo sapiens (Human), UniProt P15056, V600E). Kind of assay: Biochemical Assay for B-Raf (V600E) (1). Particulars: Table J, BRAF V600E, assay version (1); read-out: BRAF VE (1) IC50. The procedure, abridged: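 Serially diluted compounds tested against 0.03 nM enzyme with 30.1 nM MEK substrate and 1 mM ATP (Tris pH 7.5, 15 mM MgCl2), ATP use coupled to NADH loss via PK/LDH. A340 monitored continuously 6 h, 30 °C; IC50 fitted (four-parameter) from the 3–4 h rate versus no-compound and known-inhibitor controls.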
B-Raf (V600E) (SEQ. ID NO: 4) kinase, sequence (P15056 416-766 V600E): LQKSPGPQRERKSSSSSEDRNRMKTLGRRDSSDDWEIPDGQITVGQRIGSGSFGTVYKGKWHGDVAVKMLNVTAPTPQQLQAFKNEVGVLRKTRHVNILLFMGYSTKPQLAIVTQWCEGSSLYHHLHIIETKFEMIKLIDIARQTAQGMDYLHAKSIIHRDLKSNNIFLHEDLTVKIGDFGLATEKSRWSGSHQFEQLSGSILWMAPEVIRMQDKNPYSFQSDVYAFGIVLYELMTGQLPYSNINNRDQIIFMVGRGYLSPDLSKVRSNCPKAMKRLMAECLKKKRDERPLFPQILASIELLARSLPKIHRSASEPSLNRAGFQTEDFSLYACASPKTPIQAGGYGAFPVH

In assay [3] the target is B-Raf kinase (SEQ. ID NO: 2) (Homo sapiens (Human), UniProt P15056). Kind of assay: Biochemical Assay for B-Raf (1). Particulars: Table J, assay version (1); read-out: BRAF (1) IC50. The procedure, abridged:
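IC50 derived by four-parameter sigmoidal fit of percent inhibition, normalised to uninhibited and reference-inhibitor controls, using reaction rates over 4–5 h. Coupled spectrophotometric readout (NADH loss at 340 nm, 6 h, 30° C.); 1 mM ATP, 30.1 nM MEK, 0.13 nM B-Raf, pH 7.5 Tris buffer, 1% DMSO.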

The target in assay [4] is A-Raf kinase (SEQ. ID No: 1) (Homo sapiens (Human), UniProt P10398, Y301D/Y302D). Kind of assay: Biochemical Assay for A-Raf (1). Particulars: Table J, assay version (1); read-out: ARAF (1) IC50. The procedure, abridged:
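IC50 values were derived by four-parameter sigmoidal fitting of percent inhibition, calculated from reaction rates over the 4–5 h window. Absorbance at 340 nm was tracked for 6 h at 30 °C via coupled PK/LDH NADH depletion. Conditions: 1 mM ATP, 30.1 nM MEK substrate, 5.55 nM A-Raf (Y301D/Y302D), Tris pH 7.5, 1% DMSO.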

In patent publication US12319655B2, “RAF kinase inhibitors and methods of use thereof” (Deciphera Pharmaceuticals, LLC, priority 2021, dated 2025) one finds IC50 data, which are given here for twelve compounds.

Structures are written as SMILES. Bounds are passed on as bounds.

B-Raf kinase (SEQ. ID NO: 2), sequence (P15056 416-766): as the sequence (P15056 416-766 V600E) above, with E185V counted along it
A-Raf kinase (SEQ. ID No: 1), sequence (P10398 other isoform, or with tags, fused parts or gaps Y301D (already in the parent)/Y302D (already in the parent)): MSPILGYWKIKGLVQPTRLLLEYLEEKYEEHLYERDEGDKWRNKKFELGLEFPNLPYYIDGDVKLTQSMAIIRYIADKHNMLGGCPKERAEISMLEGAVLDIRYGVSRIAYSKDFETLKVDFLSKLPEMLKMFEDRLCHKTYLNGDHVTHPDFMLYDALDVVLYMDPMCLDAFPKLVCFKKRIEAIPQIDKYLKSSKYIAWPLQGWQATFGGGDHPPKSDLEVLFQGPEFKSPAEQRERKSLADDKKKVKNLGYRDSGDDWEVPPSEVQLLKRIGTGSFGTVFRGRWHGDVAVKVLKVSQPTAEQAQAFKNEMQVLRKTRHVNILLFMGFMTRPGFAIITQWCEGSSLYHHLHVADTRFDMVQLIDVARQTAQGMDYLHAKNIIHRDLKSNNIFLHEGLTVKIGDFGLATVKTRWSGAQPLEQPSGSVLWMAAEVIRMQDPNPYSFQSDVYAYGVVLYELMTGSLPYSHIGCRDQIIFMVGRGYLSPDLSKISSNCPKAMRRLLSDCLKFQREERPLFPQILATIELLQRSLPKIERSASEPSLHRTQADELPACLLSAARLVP

One may read the IC50 as the concentration at which inhibition is half-maximal. `Cc1ccc(NC(=O)c2ccnc(C(F)(F)F)c2)cc1-c1ccnc(-c2ccncc2)c1` [Example 44]: the IC50 in assay [1] was at most 100 nM; in the assay on A375 cells, 1000 to 10000 nM; in assay [2], at most 100 nM; in assay [3], at most 100 nM; in assay [4] it was 1000 to 10000 nM.
As to `CCOc1cc(-c2cc(NC(=O)c3ccnc(C(F)(F)F)c3)c(F)cc2C)cc(-c2ccnc(NC(C)=O)c2)n1` [Example 9], the IC50 was at most 100 nM in assay [1]; 100 to 500 nM in the assay on A375 cells; at most 100 nM in assay [2]; 100 to 500 nM in assay [3]; 1000 to 10000 nM in assay [4].
With `Cc1ccc(NC(=O)c2ccnc(C(F)(F)F)c2)cc1-c1ccnc(-c2cncnc2)c1` [Example 45], the IC50 is at most 100 nM in assay [1]; 1000 to 10000 nM in the assay on A375 cells; at most 100 nM in assay [2]; at most 100 nM in assay [3]; 1000 to 10000 nM in assay [4].
Take `Cc1ccc(NC(=O)c2ccnc(C(F)(F)F)c2)cc1-c1cccc(-c2ccnc(N)c2)c1` [Example 38]: the IC50 in assay [1] was at most 100 nM; in the assay with A375 cells, 1000 to 10000 nM; in assay [2] it was at most 100 nM; in assay [3], at most 100 nM; in assay [4], 1000 to 10000 nM.
Consider `Cc1ccc(NC(=O)c2cccc(C(C)(C)C#N)c2)cc1-c1cncc(-c2ccnc(C(=O)NC3CC3)c2)n1` [Example 149], for which the half-inhibitory concentration (IC50) is 100 to 500 nM in assay [1]; 1000 to 10000 nM in the assay on A375 cells; at most 100 nM in assay [2]; 100 to 500 nM in assay [3]; 1000 to 10000 nM in assay [4].
Consider `COC(C)(C)c1cc(C(=O)Nc2ccc(C)c(-c3nccc(-c4ccnc(NC(=O)C5CC5)c4)n3)c2)ccn1` [Example 239], for which the IC50 in assay [1] is at most 100 nM; in the assay with A375 cells, at most 100 nM; in assay [2], at most 100 nM; in assay [3] it was at most 100 nM; in assay [4] it was 500 to 1000 nM.
On to `Cc1ncc(NC(=O)c2ccnc(C3(C#N)CC3)c2)cc1-c1nccc(-c2ccnc(NC(=O)C3CC3)c2)n1` [Example 293], for which the IC50 in assay [1] is at most 100 nM; in the assay with A375 cells it was 100 to 500 nM; in assay [2], at most 100 nM; in assay [3], at most 100 nM; in assay [4], 1000 to 10000 nM.
`Cc1ncc(NC(=O)c2ccnc(C(C)(C)C#N)c2)cc1-c1cccc(-c2ccnc(N)n2)c1` [Example 289]: the IC50 was 100 to 500 nM in assay [1]; 1000 to 10000 nM with A375 cells; at most 100 nM in assay [2]; 100 to 500 nM in assay [3]; 1000 to 10000 nM in assay [4].
For the compound `Cc1ccc(NC(=O)c2ccnc(C(F)(F)F)c2)cc1-c1ccnc(-c2ccnc(NC(=O)CC#N)c2)n1` [Example 144], the IC50 in assay [1] was at most 100 nM; in the assay on A375 cells it was 500 to 1000 nM; in assay [2], at most 100 nM; in assay [3], at most 100 nM; in assay [4] it was 100 to 500 nM.
Consider `Cc1ccc(NC(=O)c2ccnc(C(C)(C)C#N)c2)cc1-c1ccnc(-c2ccnc(NC(=O)C3(C)CC3)c2)n1` [Example 248], for which the IC50 in assay [1] was at most 100 nM; in the assay on A375 cells, 100 to 500 nM; in assay [2] it was at most 100 nM; in assay [3] it was 100 to 500 nM; in assay [4], 1000 to 10000 nM.
With `CNC(=O)c1cc(-c2cnnc(-c3cc(NC(=O)c4cnn(C5CC5)c4)cnc3C)c2)ccn1` [Example 324], the IC50 (in assay [1]; in the assay with A375 cells; in assay [2]; in assay [3]; in assay [4]) was 1000 to 10000 nM throughout.
Regarding `Cc1cc(F)c(NC(=O)c2ccnc(C(F)F)c2)cc1-c1cncc(-c2ccnc(NC(=O)C3CC3)c2)n1` [Example 275], the IC50 in assay [1] was at most 100 nM; with A375 cells it was 1000 to 10000 nM; in assay [2] it was at most 100 nM; in assay [3], at most 100 nM; in assay [4] it was 500 to 1000 nM.
